Data taken from patent US10183949B2, “Pyrimidinone derivative having autotaxin-inhibitory activity” (The University of Tokyo, priority 2014, dated 2019).

Each molecule was assayed against T1, Human autotaxin enzyme (Homo sapiens, UniProt Q13822) (assay: Evaluation of autotaxin inhibitor, 18:0 Lyso PC / choline assay (Test Example 2)). Conditions: autotaxin inhibition, IC50 class; read-out: Inhibitor activity.
T1 construct: purchased R&D System
Type: biochemical
Description: Solution B containing 100 mM Tris-HCl buffer (pH7.5), 150 mM NaCl, 5 mM MgCl2, and 0.05% Triton X-100 was prepared. Human autotaxin enzyme (purchased from R&D System) was diluted with Solution B, and 2.5 μl of which was added to a solution of test compound in DMSO. Furthermore, 2.5 μl of 200 μM 18:0 Lyso PC (purchased from Avanti Polar Lipids) in Solution B was added and allowed to react at room temperature for 2 hours. After completion of the reaction, 15 μl of the coline assay reagent. (100 mM Tris-HCl buffer (pH7.5), 5 mM. MgCl2, 77 μg/ml coline oxidase, 10 μg/ml peroxydase, 25μM 10-acetyl-3,7-dihydroxyphenoxazine, and excess autotaxin inhibitor) was added and allowed to react at room temperature for 20 minutes. The fluorescent dye Resorufin, which was produced by the reaction, was detected. The fluorescence was detected using ViewLux
(PerkinElmer, Inc.) with a excitation wavelength of 531 nm and a fluorescence wavelength of 598 nm.
The percent inhibition of the test compound was calculated by assuming the sample with no test compound as 0% inhibition and the sample with no enzyme as 100% inhibition, and the percent inhibitions at different concentrations of the test compound were plotted to obtain a concentration-dependent curve.

Row | Compound | IC50 [nM]
1 | CC(=O)Nc1cc(Cl)ccc1-c1cc(=O)n(CC(=O)OC(C)(C)C)c(C)n1 [Compound I-0245] | < 10

Same assay, conditions: human autotaxin enzyme, 18:0 Lyso PC substrate, choline assay, room temperature 2 hours; read-out: Inhibitor activity (IC50)

Row | Compound | IC50 [nM]
2 | O=C(O)c1cccc(Cn2c(CCC(F)(F)F)nc(-c3ccc(Cl)cc3NC(=O)C3CC3)cc2=O)c1 [Compound I-0345] | 10 to 100
3 | CC(C)(O)CNC(=O)Cn1c(COCC(F)(F)F)nc(-c2ccc(Cl)cc2)cc1=O [Compound I-0215] | 10 to 100
4 | CC(C)(C)OC(=O)NCn1c(CCCC(F)(F)F)nc(-c2ccc(Cl)cc2)cc1=O [Compound I-0283] | 100 to 1000
5 | CC(C)(O)C1CCN(C(=O)Cn2c(CCCC(F)(F)F)nc(-c3ccc(C(F)(F)F)cc3)cc2=O)CC1 [Compound I-0352] | 10 to 100
6 | COC(=O)Nc1cc(Cl)ccc1-c1cc(=O)n(CC(=O)NCCNS(C)(=O)=O)c(C)n1 [Compound I-0464] | 10 to 100
7 | O=C(c1cccc(Cn2c(CCCC(F)(F)F)nc(-c3ccc(Cl)cc3)cc2=O)c1)N(CCO)Cc1ccccc1 [Compound I-0198] | 100 to 1000
8 | CCCCCc1nc(-c2ccc(Cl)cc2)cc(=O)n1CC(=O)NC(C)(C)C(=O)O [Compound I-0056] | < 10
9 | CNc1cc(Cl)ccc1-c1cc(=O)n(CC(=O)NC2(C#N)CC2)c(CCCC(F)(F)F)n1 [Compound I-0224] | 100 to 1000
10 | CCCCCc1nc(-c2ccc(Cl)cc2)cc(=O)n1CC(=O)NC1(C(=O)O)CCC1 [Compound I-0073] | < 10
11 | COC(=O)Nc1cc(Cl)ccc1-c1cc(=O)n(CC(=O)N2C(C)(C)CC(O)CC2(C)C)c(C)n1 [Compound I-0384] | ≥ 1000
12 | CCCCCc1nc(-c2ccc(Cl)cc2)cc(=O)n1CC(=O)NCCO [Compound I-0027] | 100 to 1000
13 | Cc1nc(-c2ccc(Cl)cc2NC(=O)C(C)(C)C)cc(=O)n1CC(=O)NC1(c2nc(=O)o[nH]2)CC1 [Compound I-0386] | 10 to 100
14 | CCCCCc1nc(-c2ccc(Cl)cc2)cc(=O)n1CC(=O)NCCCc1ccccc1 [Compound I-0102] | 100 to 1000
15 | COC(=O)Nc1cc(Cl)ccc1-c1cc(=O)n(CC(=O)N2CCC(C(=N)NO)CC2)c(C)n1 [Compound I-0471] | 10 to 100
16 | Cc1nc(-c2ccc(Cl)cc2NC(=O)C2CC2)cc(=O)n1CC(=O)N1CC(C(C)(C)O)C1 [Compound I-0454] | 100 to 1000
17 | O=C(Cn1c(CCCC(F)(F)F)nc(-c2ccc(C(F)(F)F)cc2)cc1=O)NCCc1cn[nH]c1 [Compound I-0333] | 10 to 100
18 | CCCCCc1nc(-c2ccc(Cl)cc2)cc(=O)n1CC(=O)NC(C)C [Compound I-0026] | 10 to 100
19 | CC(C)(C)C(=O)Nc1cc(Cl)ccc1-c1cc(=O)n(Cc2cccc(C(=O)N3CCC(O)CC3)c2)cn1 [Compound I-0489] | 10 to 100
20 | CN(CCC#N)C(=O)c1cccc(Cn2c(CCCC(F)(F)F)nc(-c3ccc(Cl)cc3)cc2=O)c1 [Compound I-0157] | 10 to 100
21 | CCCCCc1nc(-c2ccc(Cl)cc2)cc(=O)n1CC(=O)N1CCOC[C@H]1C(=O)O [Compound I-0067] | 100 to 1000
22 | Cc1noc(C2(NC(=O)Cn3c(C)nc(-c4ccc(Cl)cc4NC(=O)C4CC4)cc3=O)CC2)n1 [Compound I-0475] | 10 to 100
23 | CCCCCc1nc(OC2CCC(C#N)CC2)cc(=O)n1CC(=O)NC1(C#N)CC1 (stereo not drawn) [Compound I-0208] | ≥ 1000

Row | Compound | IC50 [nM]
24 | Cc1nc(-c2ccc(Cl)cc2NC(=O)C2CC2)cc(=O)n1CC(=O)NC(C)(C)CO [Compound I-0422] | 10 to 100
25 | CCCCCc1nc(-c2ccc(Cl)cc2)cc(=O)n1Cc1ccccc1 [Compound I-0007] | ≥ 1000
26 | CC(C)(C)OC(=O)Cn1cnc(-c2ccc(Cl)cc2)cc1=O [Compound I-0388] | ≥ 1000
27 | Cc1nc(-c2ccc(Cl)cc2NC(=O)C2CC2)cc(=O)n1Cc1cccc(C(=O)O)c1 [Compound I-0279] | < 10
28 | O=C(NCCOCCO)c1cccc(Cn2c(CCCC(F)(F)F)nc(-c3ccc(Cl)cc3)cc2=O)c1 [Compound I-0162] | 100 to 1000
29 | O=C(Cn1c(CCCC(F)(F)F)nc(-c2ccc(C(F)(F)F)cc2)cc1=O)NCc1c[nH]nn1 [Compound I-0330] | 10 to 100
30 | O=C(c1cccc(Cn2c(CCCC(F)(F)F)nc(-c3ccc(Cl)cc3)cc2=O)c1)N1CCC2(COC2)C1 [Compound I-0195] | < 10
31 | COC(=O)Nc1cc(Cl)ccc1-c1cc(=O)n(CC(=O)N2CCOCC2(C)C)c(C)n1 [Compound I-0285] | 10 to 100
32 | CCCOCc1nc(-c2ccc(Cl)cc2)cc(=O)n1CC(=O)NCC(C)(C)O [Compound I-0213] | 100 to 1000
33 | CCNC(=O)N1CCC(NC(=O)Cn2c(CCCC(F)(F)F)nc(-c3ccc(C(F)(F)F)cc3)cc2=O)CC1 [Compound I-0363] | 10 to 100
34 | CCCCCc1nc(-c2ccc(Cl)cc2)cc(=O)n1CC(=O)NC1(C(=O)O)CC1 [Compound I-0069] | 10 to 100
35 | O=C(Cn1c(CCCC(F)(F)F)nc(-c2ccc(C(F)(F)F)cc2)cc1=O)N1CCC(OCCO)CC1 [Compound I-0354] | 10 to 100
36 | CCCCCc1nc(-c2ccc(Cl)cc2)cc(=O)n1CC(=O)NC(CC)C(=O)O (stereo not drawn) [Compound I-0051] | < 10
37 | O=C(Cn1c(CCCC(F)(F)F)nc(-c2ccc(Cl)cc2)cc1=O)N1CCOC(CO)C1 (stereo not drawn) [Compound I-0139] | 10 to 100
38 | N#CC1CCN(C(=O)Cn2c(CCCC(F)(F)F)nc(-c3ccc(C(F)(F)F)cc3)cc2=O)C1 (stereo not drawn) [Compound I-0327] | 10 to 100
39 | Cc1nc(-c2ccc(Cl)cc2NC(=O)C(C)(C)C)cc(=O)n1CC(=O)N1CCC(O)CC1 [Compound I-0301] | 10 to 100
40 | CCNC(=O)N1CCC(NC(=O)c2cccc(Cn3cnc(-c4ccc(Cl)cc4NC(=O)C(C)(C)C)cc3=O)c2)CC1 [Compound I-0500] | 10 to 100
41 | CCCCCc1nc(-c2ccc(Cl)cc2)cc(=O)n1CC(=O)N1CCC(F)(F)CC1 [Compound I-0087] | 10 to 100
42 | CC(C)(O)CN1CCN(C(=O)Cn2c(CCCC(F)(F)F)nc(-c3ccc(C(F)(F)F)cc3)cc2=O)CC1 [Compound I-0357] | 100 to 1000
43 | O=C(Cn1c(CCCC(F)(F)F)nc(-c2ccc(C(F)(F)F)cc2)cc1=O)N1CCS(=O)(=O)CC1 [Compound I-0349] | 10 to 100
44 | O=C(Cn1c(CCCC(F)(F)F)nc(-c2ccc(C(F)(F)F)cc2)cc1=O)NCC1(CO)COC1 [Compound I-0337] | 10 to 100
45 | O=C(c1cccc(Cn2c(CCCC(F)(F)F)nc(-c3ccc(Cl)cc3)cc2=O)c1)N1CCSCC1 [Compound I-0153] | 10 to 100

Row | Compound | IC50 [nM]
46 | CN(CC(N)=O)C(=O)c1cccc(Cn2c(CCCC(F)(F)F)nc(-c3ccc(Cl)cc3)cc2=O)c1 [Compound I-0191] | 100 to 1000
47 | COC(=O)Nc1cc(Cl)ccc1-c1cc(=O)n(CC(=O)NC2COC2)c(C)n1 [Compound I-0393] | 10 to 100
48 | O=C(Cn1c(CCCC(F)(F)F)nc(-c2ccc(Cl)cc2)cc1=O)NCCOCCOCCO [Compound I-0140] | 100 to 1000
49 | CC1(O)CN(C(=O)Cn2c(CCCC(F)(F)F)nc(-c3ccc(Cl)cc3CO)cc2=O)C1 [Compound I-0315] | ≥ 1000
50 | CNC(=O)CN1CCC(NC(=O)Cn2c(CCCC(F)(F)F)nc(-c3ccc(Cl)cc3)cc2=O)CC1 [Compound I-0129] | 100 to 1000
51 | CS(=O)(=O)CCNC(=O)c1cccc(Cn2c(CCCC(F)(F)F)nc(-c3ccc(Cl)cc3)cc2=O)c1 [Compound I-0177] | 100 to 1000
52 | COC(=O)Nc1cc(C#N)ccc1-c1cc(=O)n(CC(=O)N2CC(C)(O)C2)c(C)n1 [Compound I-0398] | 100 to 1000
53 | CCCCCc1nc(-c2ccc(Cl)cc2)cc(=O)n1CC(=O)NCC(C)(C)C(=O)O [Compound I-0070] | < 10
54 | CCCCCc1nc(-c2ccc(Cl)cc2)cc(=O)n1CC(=O)Nc1cc(C2CC2)no1 [Compound I-0099] | ≥ 1000
55 | CNC(=O)C1CCN(C(=O)Cn2c(CCCC(F)(F)F)nc(-c3ccc(C(F)(F)F)cc3)cc2=O)CC1 [Compound I-0350] | 10 to 100
56 | O=C(Cn1c(CCCC(F)(F)F)nc(-c2ccc(C(F)(F)F)cc2)cc1=O)N1CCC(O)(Cc2ccccc2)CC1 [Compound I-0369] | 100 to 1000
57 | CCCCCc1nc(-c2ccc(Cl)cc2)cc(=O)n1C [Compound I-0005] | ≥ 1000
58 | COC(=O)c1ccc(Cn2c(CCCC(F)(F)F)nc(-c3ccc(Cl)cc3)cc2=O)s1 [Compound I-0312] | 100 to 1000
59 | COC1CCN(c2cc(=O)n(CC(=O)NC3(C#N)CC3)c(CCCC(F)(F)F)n2)CC1 [Compound I-0238] | 100 to 1000
60 | CS(C)(=O)=NC(=O)Cn1c(CCCC(F)(F)F)nc(-c2ccc(C(F)(F)F)cc2)cc1=O [Compound I-0325] | 10 to 100
61 | O=C(Cn1c(CCCC(F)(F)F)nc(-c2ccc(C(F)(F)F)cc2)cc1=O)N1CCC(O)C1 (stereo not drawn) [Compound I-0319] | 100 to 1000
62 | CCCCCc1nc(-c2ccc(Cl)cc2)cc(=O)n1CC(=O)NCCC(=O)O [Compound I-0040] | 10 to 100
63 | CNC(=O)NC1CCN(C(=O)Cn2c(C)nc(-c3ccc(Cl)cc3NC(=O)OC)cc2=O)CC1 [Compound I-0383] | 10 to 100
64 | O=C(Cn1c(CCCC(F)(F)F)nc(-c2ccc(Cl)cc2)cc1=O)NCC1(CO)COC1 [Compound I-0147] | 10 to 100
65 | NS(=O)(=O)CCNC(=O)c1cccc(Cn2c(CCCC(F)(F)F)nc(-c3ccc(Cl)cc3)cc2=O)c1 [Compound I-0186] | 100 to 1000
66 | CCCCCNc1nc(-c2ccc(C(F)(F)F)cc2)cc(=O)n1Cc1ccc(C(=O)NC(Cc2ccccc2)C(=O)O)cc1 (stereo not drawn) [Compound I-0017] | 100 to 1000
